Patent EP0930296A1, “FLUORINATED PROSTAGLANDIN DERIVATIVES AND MEDICINES” (ASAHI GLASS COMPANY LTD., priority 1996, dated 1998)

Key:
Japanese white rabbits = assay: Test on eye irritations: conditions of the front of the eye, scores by improved Draize method; assay type: in vivo; settings: for scored in total, as much as Latanoprost did: ratio of total scores, Table 2 to Table 3; for Condition of nictitating membrane / Edema of eyelid conjunctiva / Iridial congestion / Opacity of the cornea / Opaque fraction of the cornea / Rubor of eyelid conjunctiva / Rubor of supraocular conjunctiva / Secretions / Total score: ten times at 30 minute intervals; for Total score: sum of the scores
Experimental: The eye irritation caused by a compound of the present invention was investigated in accordance with the method of Fukui et al. ("[…]-no-rinsho", 4277-89 (1970)). Male Japanese white rabbits weighing about 2.5 kg were used in the test. A test compound was applied into the conjunctival sac of a right eye ten times at 30 minute intervals. The conditions of the front and the anterior chamber of the eye were observed just before and 1, 2 and 4 hours after the final application, and the damage to the cornea was observed 4 hours after the final application. Into the conjunctival sac of a left eye, the base only, which was free from the test compound, was applied. A) Conditions of the front of the eye: Scores were determined on the basis of the following scale of damage to the eye according to the improved Draize method. • a) Opacity • No cloud (normal); 0 • Scattered clouds in pervasive regions (the details of the iris are clearly visible); 1 • Easily distinguishable translucent regions (details of the iris are not visible so clearly); 2 • Opaque regions, details of the iris are invisible, and the size of the pupil is barely recognizable; 3 • Unclear, the iris is invisible; 4 • b) The size of the region of the cornea falling into the above • None; 0 • More than 0 and not more than 1/4; 1 • More than 1/4 and less than 1/2; 2 • More than 1/2 and less than 3/4; 3 • More than 3/4 and all over; 4 • Normal; 0 • More […], stasis, swelling, congestion around the cornea than normal (any or combinations of them), the iris is still responsive to light (positive for slow reaction); 1 • Irresponsible to light, and bleeding and apparent destruction (any or all of them); 2 • a) Rubor of the eyelid conjunctiva • No congestion; 0 • Slightly reddish mucosae and slight but recognizable vasodilation of the edge of the eyelid; 0.5 • Clearly abnormal congestion, appreciably red mucosae and remarkable swelling; 1 • Pretty remarkably red ocular mucosae and slightly unclear peripheral vessels; 2 • More intense conditions than 2 and pervasive beef-like rubor; 3 • b) Edema of the eyelid conjunctiva • Not swollen; 0 • Slight tendency of edema; 0.5 • More swollen than normal; 1 • Apparently swollen together with part of the integument of the eyelid; 2 • Swollen with about half of the eyelid sagging; 3 • Swollen with about half to all of the eyelid sagging; 4 • c) Rubor of the supraocular conjunctiva • No congestion; 0 • Slight vasodilation around the cornea; 0.5 • More remarkable vasodilation; 1 • Remarkable vasodilation toward the edge of the eyelid or remarkable rubor; 2 • d) Condition of the nictitating membrane • No congestion; 0 • Recognizable vasodilation and tendency of edema; 0.5 • More appreciable vasodilation and rubor of the edge of the eyelid; 1 • Extreme vasodilation and remarkable rubor of the entire nictitating membrane; 2 • e) Secretions • No secretions; 0 • A certain amount more than normal (exclusive of small amount of secretions found at the medial angle of the eye of a normal animal); 1 • Some secretions with a wet eyelid and neighboring fur; 2 • Some secretions with a wet eyelid and a large area of wet fur around the eye; 3 • B) Conditions of the anterior chamber: After the observation of the front of the eye, the inside of the anterior chamber was checked for flares under a slit lamp. • C) Damage to the cornea: After observation of the conditions of the front and anterior chamber of the eye 4 hours after the final application, the cornea was stained with fluorescein, and the remaining dye on the cornea was observed under a slit lamp. […] Further, to comprehensively evaluate damage to the front of the eye, the sum of the scores was calculated as a total score.

crab-eating macaques = assay: Effects on intraocular pressure (air-puff applanation tonometer, ketamine anesthesia); assay type: in vivo; settings: for Change in ocular pressure after application: average of 8 subjects, relative to initial intraocular pressure
Experimental: The effect of a compound of the present invention on intraocular pressure was studied in accordance with the method disclosed in a report of a study on the effect of the tromethamine salt and the isopropyl ester of PGF2α on intraocular pressure in crab-eating macaques (Exp. Eye Res., 61, 677-683 (1995)).
Male crab-eating macaques weighing from 5 to 7.5 kg (5-10 years old) were used in the test. The intraocular pressures were measured just before and 2, 4 and 6 hours after application of the test compound under ketamine anesthasia (5-10 mg/kg, intramuscular administration) by means of an air-puff applanation tonometer.
The results of application of 0.1% (w/v) ophthalmic solution containing Latanoprost (reference pharmaceutical 1), which is known as a therapeutic agent for glaucoma are also shown in Table 1.

[1] = system: smooth muscle in the digestive and circulatory systems; settings: Izv. Akad. Nauk SSSR, Ser. Biol., 6, 831 (1989); cited from earlier work
[2] = system: smooth muscle in the respiratory system; settings: Izv. Akad. Nauk SSSR, Ser. Biol., 6, 831 (1989); cited from earlier work
[3] = After 1 hr, 0.01% (w/v) ophthalmic solution (pharmaceutical 3), 50 µℓ, average of three subjects
[4] = After 2 hrs, 0.01% (w/v) ophthalmic solution (pharmaceutical 3), 50 µℓ, average of three subjects
[5] = After 4 hrs, 0.01% (w/v) ophthalmic solution (pharmaceutical 3), 50 µℓ, average of three subjects
[6] = 2 hours, 20 µℓ of 0.1% (w/v) ophthalmic solution
[7] = 4 hours, 20 µℓ of 0.1% (w/v) ophthalmic solution
[8] = 6 hours, 20 µℓ of 0.1% (w/v) ophthalmic solution
[9] = After 1 hr, 0.1% (w/v) ophthalmic solution (reference pharmaceutical 1)
[10] = After 2 hrs, 0.1% (w/v) ophthalmic solution (reference pharmaceutical 1)
[11] = After 4 hrs, 0.1% (w/v) ophthalmic solution (reference pharmaceutical 1)

CC(C)OC(=O)CCC/C=C\C[C@@H]1[C@@H](/C=C/C(F)COc2cc(Cl)cc(Cl)c2)[C@H](O)C[C@@H]1O (single isomer, unassigned) [Compound A, 16-(3,5-dichlorophenoxy)-15-deoxy-15-fluoro-17,18,19,20-tetranorprostaglandin F2α isopropyl ester]
scored in total, as much as Latanoprost did (Japanese white rabbits; 1 hour after application): about 1/5 | scored in total, as much as Latanoprost did (Japanese white rabbits; 2 hours after application): 1/2 | scored in total, as much as Latanoprost did (Japanese white rabbits; 4 hours after application): 1/3 | Condition of nictitating membrane (Japanese white rabbits; [3]): 0.2 | Edema of eyelid conjunctiva (Japanese white rabbits; [3]): 0 | Iridial congestion (Japanese white rabbits; [3]): 0 | Opacity of the cornea (Japanese white rabbits; [3]): 0 | Opaque fraction of the cornea (Japanese white rabbits; [3]): 0 | Rubor of eyelid conjunctiva (Japanese white rabbits; [3]): 0 | Rubor of supraocular conjunctiva (Japanese white rabbits; [3]): 0.2 | Secretions (Japanese white rabbits; [3]): 0 | Condition of nictitating membrane (Japanese white rabbits; [4]): 0.2 | Edema of eyelid conjunctiva (Japanese white rabbits; [4]): 0 | Iridial congestion (Japanese white rabbits; [4]): 0 | Opacity of the cornea (Japanese white rabbits; [4]): 0 | Opaque fraction of the cornea (Japanese white rabbits; [4]): 0 | Rubor of eyelid conjunctiva (Japanese white rabbits; [4]): 0.2 | Rubor of supraocular conjunctiva (Japanese white rabbits; [4]): 0.5 | Secretions (Japanese white rabbits; [4]): 0 | Condition of nictitating membrane (Japanese white rabbits; [5]): 0 | Edema of eyelid conjunctiva (Japanese white rabbits; [5]): 0 | Iridial congestion (Japanese white rabbits; [5]): 0 | Opacity of the cornea (Japanese white rabbits; [5]): 0 | Opaque fraction of the cornea (Japanese white rabbits; [5]): 0 | Rubor of eyelid conjunctiva (Japanese white rabbits; [5]): 0 | Rubor of supraocular conjunctiva (Japanese white rabbits; [5]): 0.2 | Secretions (Japanese white rabbits; [5]): 0 | Total score (Japanese white rabbits; After 1 hr, 0.01% (w/v) ophthalmic solution (pharmaceutical 3), 50 µℓ): 0.4 | Total score (Japanese white rabbits; After 2 hrs, 0.01% (w/v) ophthalmic solution (pharmaceutical 3), 50 µℓ): 0.9 | Total score (Japanese white rabbits; After 4 hrs, 0.01% (w/v) ophthalmic solution (pharmaceutical 3), 50 µℓ): 0.2 | irritation of the front of the eye (Japanese white rabbits; when applied to the eye, slight congestion of the conjunctiva was observed): little irritant | Change in ocular pressure after application (crab-eating macaques; 2 hours, 20 µℓ of 0.01% (w/v) ophthalmic solution): -0.8 mmHg | Change in ocular pressure after application (crab-eating macaques; [6]): -1.0 mmHg | Change in ocular pressure after application (crab-eating macaques; 4 hours, 20 µℓ of 0.01% (w/v) ophthalmic solution): -1.8 mmHg | Change in ocular pressure after application (crab-eating macaques; [7]): -1.4 mmHg | lowered the intraocular pressure, times as much as Latanoprost (crab-eating macaques; 6 hours after application): about 1.5 times | Change in ocular pressure after application (crab-eating macaques; 6 hours, 20 µℓ of 0.01% (w/v) ophthalmic solution): -3.0 mmHg | Change in ocular pressure after application (crab-eating macaques; [8]): -3.6 mmHg

CCCCCC(F)/C=C/[C@@H]1[C@@H](C/C=C\CCCC(=O)O)[C@@H](O)C[C@H]1O (stereo partly drawn) [15-Fluoro-15-deoxy PGF2α, 15-fluoro-15-deoxy PGF2α]
action on the smooth muscle in the digestive and circulatory systems relative to the naturally occurring PGF2α [1]: comparable | contraction action on smooth muscle in the respiratory system as compared with the naturally occurring PGF2α [2]: 100 fold | relaxation action on smooth muscle in the respiratory system as compared with the naturally occurring PGF2α [2]: 1000 fold

CC(C)OC(=O)CCC/C=C\C[C@@H]1[C@@H](CC[C@@H](O)CCc2ccccc2)[C@H](O)C[C@@H]1O [Latanoprost, 13,14-dihydro-17-phenyl-18,19,20-trinor PGF2α isopropyl ester, reference compound]
Condition of nictitating membrane (Japanese white rabbits; [9]): 0.3 | Edema of eyelid conjunctiva (Japanese white rabbits; [9]): 0 | Iridial congestion (Japanese white rabbits; [9]): 0 | Opacity of the cornea (Japanese white rabbits; [9]): 0 | Opaque fraction of the cornea (Japanese white rabbits; [9]): 0 | Rubor of eyelid conjunctiva (Japanese white rabbits; [9]): 0.5 | Rubor of supraocular conjunctiva (Japanese white rabbits; [9]): 0.8 | Secretions (Japanese white rabbits; [9]): 0.3 | Condition of nictitating membrane (Japanese white rabbits; [10]): 0.3 | Edema of eyelid conjunctiva (Japanese white rabbits; [10]): 0 | Iridial congestion (Japanese white rabbits; [10]): 0 | Opacity of the cornea (Japanese white rabbits; [10]): 0 | Opaque fraction of the cornea (Japanese white rabbits; [10]): 0 | Rubor of eyelid conjunctiva (Japanese white rabbits; [10]): 0.5 | Rubor of supraocular conjunctiva (Japanese white rabbits; [10]): 0.8 | Secretions (Japanese white rabbits; [10]): 0 | Condition of nictitating membrane (Japanese white rabbits; [11]): 0.3 | Edema of eyelid conjunctiva (Japanese white rabbits; [11]): 0 | Iridial congestion (Japanese white rabbits; [11]): 0 | Opacity of the cornea (Japanese white rabbits; [11]): 0 | Opaque fraction of the cornea (Japanese white rabbits; [11]): 0 | Rubor of eyelid conjunctiva (Japanese white rabbits; [11]): 0 | Rubor of supraocular conjunctiva (Japanese white rabbits; [11]): 0.3 | Secretions (Japanese white rabbits; [11]): 0 | Total score (Japanese white rabbits; [9]): 1.9 | Total score (Japanese white rabbits; [10]): 1.6 | Total score (Japanese white rabbits; [11]): 0.6 | Change in ocular pressure after application (crab-eating macaques; [6]): -0.6 mmHg | Change in ocular pressure after application (crab-eating macaques; [7]): -2.6 mmHg | Change in ocular pressure after application (crab-eating macaques; [8]): -2.3 mmHg
